The pest or weed control is the degree to which the test organism was suppressed or injured, in per cent.

Holding throughout (assay type): in vivo
Holding throughout (details): 312 h, rate 250 g/ha, evaluated after 13 days, 100=total damage to plant, 0=no damage to plant

In experiment [1] the test system is Alopecurus myosuroides (ALOMY). Briefly: Pre-emergence herbicidal activity, glasshouse pot test. The essentials:
(§1)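 Seeds were sown in standard soil and sprayed one day after sowing with an aqueous solution of the active ingredient formulated in acetone/water (50:50) containing 0.5% Tween 20. Plants grew in the glasshouse at 24/16 °C day/night, 14 h light, 65% humidity. Damage was scored after 13 days (0 = none, 100 = total).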

The test system of experiment [2] is Avena fatua (AVEFA). Described as above. The gist of the method:
as §1

For experiment [3], the system named is Echinochloa crus-galli (ECHCG). The experiment is described as above. The gist of the method: as §1
In experiment [4] the test system is Lolium perenne (LOLPE). The experiment is described as above. The gist of the method: as §1
Experiment [5] relates to Alopecurus myosuroides (ALOMY). Briefly: Post-emergence herbicidal activity, glasshouse pot test. The gist of the method:
(§2)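 Plants grown 8 days in soil in a glasshouse (24/16 °C day/night, 14 h light, 65% humidity), then sprayed post-emergence with compound in acetone/water (50:50) with 0.5% Tween 20. Damage scored 13 days later on a 0–100 scale (100 = total damage).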

Experiment [6] deals with Avena fatua (AVEFA). The description is as above. The essentials: as §2
The test system of experiment [7] is Echinochloa crus-galli (ECHCG). The description is as above. The gist of the method:
as §2

Experiment [8] deals with Lolium perenne (LOLPE). The experiment is described as above. The essentials:
as §2

Structures are written as SMILES.

On to `CCc1ccc(Oc2ccc(Cl)c(F)c2)cc1C1=C(O)CCC1=O` [Compound A-41], for which the pest or weed control at 250 g/ha in experiment [1] came to 0%; in the experiment on Avena fatua (AVEFA) [2], 0%; in experiment [3], 30%; with Lolium perenne (LOLPE) [4], 0%; in experiment [5] it was 0%; in the experiment on Avena fatua (AVEFA) [6], 10%. Further, the pest or weed control at 250 g/ha in experiment [7] is 70%; with Lolium perenne (LOLPE) [8], 20%.

Consider `CCc1ccc(Oc2ccc(Br)cc2F)cc1C1=C(O)CCC1=O` [Compound A-42], for which the pest or weed control at 250 g/ha in experiment [1] came to 0%; with Avena fatua (AVEFA) [2], 0%; in experiment [3] it was 30%; in the experiment on Lolium perenne (LOLPE) [4], 0%; in experiment [5], 0%; in the experiment on Avena fatua (AVEFA) [6] it was 0%. Further, the pest or weed control at 250 g/ha in experiment [7] was 70%; in the experiment with Lolium perenne (LOLPE) [8], 10%.

As to `CCc1ccc(Oc2ccc3cc(Cl)ccc3n2)cc1C1=C(O)CCC1=O` [Compound A-43], the pest or weed control at 250 g/ha came to 40% in experiment [1]; 10% in the experiment on Avena fatua (AVEFA) [2]; 60% in experiment [3]; 50% with Lolium perenne (LOLPE) [4]; 60% in experiment [5]; 30% with Avena fatua (AVEFA) [6]. Further, the pest or weed control at 250 g/ha in experiment [7] is 100%; with Lolium perenne (LOLPE) [8], 30%.

`CCc1ccc(Oc2ccc(Cl)cc2Cl)cc1C1=C(O)[C@H]2[C@@H](C1=O)[C@@H]1CC[C@H]2O1` [Compound A-44]: the pest or weed control at 250 g/ha in experiment [1] was 80%; in the experiment on Avena fatua (AVEFA) [2] it was 80%; in experiment [3], 80%; in the experiment on Lolium perenne (LOLPE) [4], 90%; in experiment [5], 80%; in the experiment on Avena fatua (AVEFA) [6] it was 80%. For the same compound, the results for the pest or weed control at 250 g/ha (in experiment [7]; in the experiment on Lolium perenne (LOLPE) [8]) were 80% and 90%, respectively.

As for `CCc1ccc(Oc2ccc(Cl)c(F)c2)cc1C1=C(O)[C@H]2[C@@H](C1=O)[C@@H]1CC[C@H]2O1` [Compound A-45], the pest or weed control at 250 g/ha in experiment [1] amounted to 90%; in the experiment on Avena fatua (AVEFA) [2], 90%; in experiment [3] it was 100%; in the experiment on Lolium perenne (LOLPE) [4], 90%; in experiment [5], 90%; with Avena fatua (AVEFA) [6], 90%. Further, the pest or weed control at 250 g/ha in experiment [7] came out at 100%; in the experiment on Lolium perenne (LOLPE) [8], 90%.

For the compound `CCc1ccc(Oc2ccc(F)cc2)cc1C1=C(O)[C@H]2[C@@H](C1=O)[C@@H]1CC[C@H]2O1` [Compound A-46], the pest or weed control at 250 g/ha in experiment [1] was determined as 80%; in the experiment with Avena fatua (AVEFA) [2] it was 60%; in experiment [3], 100%; in the experiment on Lolium perenne (LOLPE) [4], 80%; in experiment [5], 80%; with Avena fatua (AVEFA) [6], 60%. Moreover, the pest or weed control at 250 g/ha in experiment [7] stood at 100%; with Lolium perenne (LOLPE) [8], 80%.

As for `CCc1ccc(Oc2cccc(Br)c2)cc1C1=C(O)[C@H]2[C@@H](C1=O)[C@@H]1CC[C@H]2O1` [Compound A-47], the pest or weed control at 250 g/ha in experiment [1] worked out at 60%; in the experiment on Avena fatua (AVEFA) [2] it was 30%; in experiment [3], 90%; in the experiment with Lolium perenne (LOLPE) [4], 70%; in experiment [5], 60%; in the experiment on Avena fatua (AVEFA) [6], 30%. The pest or weed control at 250 g/ha is 90% in experiment [7] and 70% in the experiment with Lolium perenne (LOLPE) [8].

As for `CCc1ccc(Oc2ccc(Br)c(Cl)c2)cc1C1=C(O)[C@H]2[C@@H](C1=O)[C@@H]1CC[C@H]2O1` [Compound A-48], the pest or weed control at 250 g/ha in experiment [1] is 80%; in the experiment with Avena fatua (AVEFA) [2], 80%; in experiment [3] it was 90%; with Lolium perenne (LOLPE) [4], 80%; in experiment [5] it was 80%; in the experiment with Avena fatua (AVEFA) [6], 80%. Moreover, the pest or weed control at 250 g/ha in experiment [7] was determined as 90%; in the experiment with Lolium perenne (LOLPE) [8], 80%.

Consider `CCc1ccc(Oc2ccc(F)c(Cl)c2)cc1C1=C(O)[C@H]2[C@@H](C1=O)[C@@H]1CC[C@H]2O1` [Compound A-49], for which the pest or weed control at 250 g/ha in experiment [1] is 90%; with Avena fatua (AVEFA) [2], 90%; in experiment [3], 100%; in the experiment with Lolium perenne (LOLPE) [4], 100%; in experiment [5], 90%; in the experiment with Avena fatua (AVEFA) [6], 90%. Moreover, the pest or weed control at 250 g/ha (in experiment [7]; with Lolium perenne (LOLPE) [8]) was 100% in each case.

Take `CCc1ccc(Oc2ccc(OC(F)(F)F)cc2)cc1C1=C(O)[C@H]2[C@@H](C1=O)[C@@H]1CC[C@H]2O1` [Compound A-50]: the pest or weed control at 250 g/ha (in experiment [1]; in the experiment on Avena fatua (AVEFA) [2]; in experiment [3]; with Lolium perenne (LOLPE) [4]; in experiment [5]; with Avena fatua (AVEFA) [6]) was 100% throughout. Also, the pest or weed control at 250 g/ha (in experiment [7]; with Lolium perenne (LOLPE) [8]) was 100% each time.

For the compound `CCc1ccc(Oc2cnc3cc(Cl)ccc3n2)cc1C1=C(O)[C@H]2[C@@H](C1=O)[C@@H]1CC[C@H]2O1` [Compound A-51], the pest or weed control at 250 g/ha is 100% in experiment [1]; 90% with Avena fatua (AVEFA) [2]; 90% in experiment [3]; 100% in the experiment on Lolium perenne (LOLPE) [4]; 100% in experiment [5]; 90% with Avena fatua (AVEFA) [6]. In addition, the results for the pest or weed control at 250 g/ha (in experiment [7]; with Lolium perenne (LOLPE) [8]) were 90% and 100%, respectively.

For the compound `O=C1CCC(O)=C1c1cc(Oc2ccc(Cl)cc2)ccc1OC(F)(F)F` [Compound A-52, 2-[5-(4-chlorophenoxy)-2-trifluoromethoxyphenyl]cyclopentane-1,3-dione], the pest or weed control at 250 g/ha (in experiment [1]; in the experiment with Avena fatua (AVEFA) [2]; in experiment [3]; in the experiment with Lolium perenne (LOLPE) [4]; in experiment [5]; with Avena fatua (AVEFA) [6]) was 0% each time. Moreover, the pest or weed control at 250 g/ha in experiment [7] stood at 50%; in the experiment with Lolium perenne (LOLPE) [8], 0%.

Turning to `CCc1ccc(Oc2ccc3cc(Cl)ccc3n2)cc1C1=C(O)C2C3CCC(CC3)C2C1=O` (stereo not drawn) [Compound A-53], the pest or weed control at 250 g/ha came out at 80% in experiment [1]; 0% in the experiment with Avena fatua (AVEFA) [2]; 100% in experiment [3]; 80% with Lolium perenne (LOLPE) [4]; 80% in experiment [5]; 80% in the experiment with Avena fatua (AVEFA) [6]. For the same compound, the pest or weed control at 250 g/ha (in experiment [7]; in the experiment on Lolium perenne (LOLPE) [8]) was 90% throughout.

Turning to `O=C1CCC(O)=C1c1cc(Oc2ccc(Cl)cc2)ccc1C1CC1` [Compound A-54, 2-[5-(4-chlorophenoxy)-2-cyclopropylphenyl]cyclopentane-1,3-dione], the pest or weed control at 250 g/ha in experiment [1] is 0%; in the experiment with Avena fatua (AVEFA) [2], 0%; in experiment [3], 0%; in the experiment on Lolium perenne (LOLPE) [4] it was 0%; in experiment [5], 0%; in the experiment with Avena fatua (AVEFA) [6] it was 10%. The pest or weed control at 250 g/ha in experiment [7] worked out at 80%; with Lolium perenne (LOLPE) [8] it was 0%.

As to `CCc1ccc(Oc2ccc(C#N)c(Cl)c2)cc1C1=C(O)CCC1=O` [Compound A-56], the pest or weed control at 250 g/ha in experiment [1] is 30%; with Avena fatua (AVEFA) [2] it was 20%; in experiment [3] it was 60%; in the experiment on Lolium perenne (LOLPE) [4], 50%; in experiment [5], 20%; with Avena fatua (AVEFA) [6], 0%. Moreover, the pest or weed control at 250 g/ha in experiment [7] came to 70%; in the experiment on Lolium perenne (LOLPE) [8] it was 20%.

On to `CCc1ccc(Oc2ccc(C(F)(F)F)cn2)cc1C1=C(O)CCC1=O` [Compound A-60], for which the pest or weed control at 250 g/ha turned out to be 80% in experiment [1]; 70% in the experiment with Avena fatua (AVEFA) [2]; 100% in experiment [3]; 80% in the experiment with Lolium perenne (LOLPE) [4]; 90% in experiment [5]; 80% with Avena fatua (AVEFA) [6]. Also, the results for the pest or weed control at 250 g/ha (in experiment [7]; in the experiment on Lolium perenne (LOLPE) [8]) were 100% and 80%, respectively.

Consider `CCc1ccc(Oc2cnc3ccccc3n2)cc1C1=C(O)CCC1=O` [Compound A-67], for which the pest or weed control at 250 g/ha in experiment [1] worked out at 60%; with Avena fatua (AVEFA) [2] it was 40%; in experiment [3], 100%; with Lolium perenne (LOLPE) [4] it was 100%; in experiment [5], 70%; in the experiment with Avena fatua (AVEFA) [6], 20%. For the same compound, the pest or weed control at 250 g/ha came out at 100% in experiment [7] and 80% in the experiment on Lolium perenne (LOLPE) [8].

For the compound `CCc1ccc(Oc2ccc(C(F)(F)F)c(C#N)c2)cc1C1=C(O)CCC1=O` [Compound A-70], the pest or weed control at 250 g/ha in experiment [1] was 0%; in the experiment with Avena fatua (AVEFA) [2], 10%; in experiment [3], 60%; in the experiment with Lolium perenne (LOLPE) [4] it was 20%; in experiment [5], 0%; with Avena fatua (AVEFA) [6], 0%. For the same compound, the figures for the pest or weed control at 250 g/ha (in experiment [7]; with Lolium perenne (LOLPE) [8]) were 60% and 10%, respectively.

These data come from patent US8895474B2, “Herbicidally active cyclopentanediones and derivatives thereof, and their use in controlling weeds” (Syngenta Limited, priority 2009, dated 2014).
